# Where “and” joins values, the source holds several entries; their conditions need not be identical. Equal values may be shown once. Entries after “also recorded” stand apart in the source; their conditions may differ. Read-outs that look alike come from different tables or passages of the source.
# Legend:
# [1] = system: w794 DNA; assay: DNA alkylation studies, cell-free (thermally induced strand cleavage, PAGE autoradiography); type: biochemical; conditions: for DNA alkylation: no deliberate activation
# Experimental: DNA-agent incubation at 23° C. for 2 hours (h), removal of unbound agent by EtOH precipitation, and 30 minute thermolysis (100° C.) followed by 8% denaturing PAGE and autoradiography. Lane 1, control DNA; lanes 2-5, Sanger G, C, A, and T sequencing reactions; lane 6, Compound (+)-4 (1×10^−5 M); lane 7, Compound (+)-7 (1×10^−5 M); lanes 8-9, Compound (+)-7 (1×10^−5 M) incubated at 37° C. with 1 M L-glutathione for 12 hours and 24 hours.
# DNA-agent incubation at 23° C. for 2 hours (h), removal of unbound agent by EtOH precipitation, and 30 minutes thermolysis (100° C.) followed by 8% denaturing PAGE and autoradiography.
# Lane 1, control DNA; lanes 2-5, Sanger G, C, A, and T sequencing reactions; lanes 6-8, Compound (+)-4 (1×10^−4 to 1×10^−6 M); lanes 9-11, Compound (+)-6 (1×10^−2 to 1×10^−4 M).
# Lane 1, control DNA; lanes 2-5, Sanger G, C, A, and T sequencing reactions; lanes 6-11, Compound (+)-4 (1×10^−4M, t=2, 4, 6, 8, 24, 48 hours); lanes 12-15, Compound (+)-6 (1×10^−2M, t=2, 4, 6, 8 hours).
# Lane 1, control DNA; lanes 2-5, Sanger G, C, A, and T sequencing reactions; lane 6, Compound (+)-4 (1×10^−4 M); lanes 7-9, Compound (±)-19 (1×10^−3 to 1×10^−5 M).
# See Boger et al., Tetrahedron 1991, 47:2661-2682 for full details of the DNA alkylation assay. The DNA alkylation reactions were conducted at […] with 5′-^32P-end-labeled w794 DNA, which contains a single major alkylation site for the natural products.
# [2] = system: L1210 (ATCC CCL-219) mouse lymphocytic leukemia cells; assay: Cell growth inhibition assay (phosphatase readout); type: cell-based
# Experimental: Compounds were tested for their cell growth inhibition of L1210 (ATCC CCL-219) mouse lymphocytic leukemia cells. A population of cells (>1×10^6 cells/mL as determined with a hemocytometer) was diluted with an appropriate amount of Dulbecco-modified Eagle Medium (DMEM, Gibco) containing 10% fetal bovine serum (FBS, Gibco) to a final concentration of 30,000 cells/mL. To each well of a 96-well plate (Corning® Costar®), 100 μL of the cell-media solution was added with a multichannel pipette. The cultures were incubated at 37° C. in an atmosphere of 5% CO2 and 95% humidified air for 24 hours. The test compounds were added to the plate as follows: test substances were diluted in DMSO to a concentration of 1 mM and 10-fold serial dilutions were performed on a separate 96-well plate. Fresh culture medium (100 μL) was added to each well of cells to constitute 200 μL of medium per well followed by 2 μL of each test agent. Compounds were tested in duplicate (≧2 times) at six concentrations between 0-100 nM or 0-1000 nM. Following addition, cultures were incubated for an additional 72 hours.
# A phosphatase assay was used to establish the IC50 values as follows: the media in each cell was removed and 100 μL of phosphatase solution (100 mg phosphatase substrate in 30 mL 0.1 M NaOAc, pH 5.5, 0.1% Triton® X-100 buffer) was added to each well. The plates were incubated at 37° C. for 5 minutes. After the given incubation time, 50 μL of 0.1 N NaOH was added to each well and the absorption at 405 nm was determined using a 96 well plate reader. As the absorption is directly proportional to the number of living cells, the IC50 values were calculated and the reported values represent of the average of ≧4 determinations (SD±10%).
# [3] = system: L1210 murine leukemia cells; assay: In vivo antitumor activity, L1210 implanted ip in B6D2F1 mice; parameters: species or system mouse
# Experimental: [Wolfe et al., J. Med. Chem. 2012, 55:5878-5886.] Therefore, the preliminary evaluation of the in vivo antitumor activity of the cyclic N—O pro-drugs was assessed with Compound (+)-6 and was conducted alongside seco-CBI-indole2 (Compound 4) in an antitumor model consisting of L1210 murine leukemia cells implanted ip in B6D2F1 mice traditionally used to initially compare new duocarmycin derivatives (Table 3, below).
# B6D2F1 mice were injected intraperitoneally (i.p.) with syngeneic L1210 cells (1×10^6) on day 0. Ten mice were randomly assigned to control vehicle or treatment groups for Compounds (+)-4 and (+)-6 at doses of 60, 100, 250, and 500 μg/kg/inj for Compounds (+)-4 or 60, 200, 500, 1000, and 2500 μg/kg/inj for Compounds (+)-6. Compounds (+)-4 and (+)-6 were formulated in 100% DMSO. Both compounds were injected i.p. on days 1, 5, and 9. Following injection of tumor cells, animals were monitored daily and weighed two times per week. Percent survival (T/C) for treated and control groups were determined by dividing the total survival days for each treatment group by the total survival days for the control group and multiplying×100. All animal studies were carried out in the animal facilities of The University of Kansas Medical Center with strict adherence to the guidelines of the IACUC Animal Welfare Committee of KUMC (IACUC approval #2009-1837).
# [4] = Stability to basic conditions (NaHCO3); type: physicochemical; conditions: 23° C.
# [5] = physchem; conditions: buffer
# [6] = system: L1210 murine leukemia cells; conditions: literature dose range; cited from earlier work
# [7] = Mus musculus, L1210, 72 h, read-out: IC50 L1210 natural, natural enantiomer, 72 hours
# [8] = Mus musculus, L1210, 72 h, read-out: IC50 L1210 unnatural, unnatural enantiomer, 72 hours
# [9] = 60 μg/kg i.p. on days 1, 5 and 9
# [10] = 100 μg/kg i.p. on days 1, 5 and 9
# [11] = 250 μg/kg i.p. on days 1, 5 and 9
# [12] = 500 μg/kg i.p. on days 1, 5 and 9
# [13] = 1000 μg/kg i.p. on days 1, 5 and 9
# [14] = 2500 μg/kg i.p. on days 1, 5 and 9
compound,measurement,setting,value
"CNC(=O)c1cccc2c3c(cc(O)c12)N(C(=O)c1cc2cc(NC(=O)c4cc5ccccc5[nH]4)ccc2[nH]1)CC3CCl (racemic) [Compound 19, 3-(5-(1H-Indole-2-carboxamido)-1H-indole-2-carbonyl)-1-(chloromethyl)-5-hydroxy-N-methyl-1,2-dihydrobenzo-[e]indole-6-carboxamide]",DNA alkylation,[1],alkylate DNA in a manner analogous to Compound (+)-4
same,times less potent than seco-(+)-CBI-indole2,"[2]; L1210, racemic mixture",2.5 times
same,IC50,"[2]; Mus musculus, L1210, 72 h, read-out: IC50 L1210, tested as a racemic mixture, 72 hours",0.073 nM
"CC(C)(C)OC(=O)N1CC2CC23C1=CC(=O)c1ccccc13 (single isomer, unassigned; (+)) [(+)-N—Boc-CBI, reference compound]",IC50,"[2]; natural enantiomer, 72 hours, read-out: IC50 L1210 natural",80 nM
same,IC50,"[2]; unnatural enantiomer, 72 hours, read-out: IC50 L1210 unnatural",900 nM
"COC(=O)c1cc2c([nH]1)C(=O)C=C1N(C(=O)c3cc4cc(OC)c(OC)c(OC)c4[nH]3)C[C@H]3CC123 (stereo partly drawn) [Compound 1, Duocarmycin SA, reference compound]",IC50,[2]; [7],0.01 nM
same,IC50,[2]; [8],0.1 nM
"COc1c(O)c2c(c3cc(C(=O)N4CCc5c4c(O)c(OC)c4[nH]c(C(=O)N6C[C@H]7CC78C6=CC(=O)c6[nH]cc(C)c68)cc54)[nH]c13)CCN2C(N)=O (stereo partly drawn) [Compound 2, CC-1065, reference compound]",IC50,[2]; [7],0.02 nM
same,IC50,[2]; [8],0.02 nM
"O=C(Nc1ccc2[nH]c(C(=O)N3C[C@@H](CCl)c4c3cc(O)c3ccccc43)cc2c1)c1cc2ccccc2[nH]1 [Compound 4, seco-CBI-indole2, reference compound]",IC50,"[2]; Mus musculus, L1210, natural enantiomer, 72 hours, read-out: IC50 L1210 natural",0.03 nM
same,IC50,"[2]; Mus musculus, L1210, unnatural enantiomer, 72 hours, read-out: IC50 L1210 unnatural",0.9 nM
same,MSP (Mean Survival Period),[3]; [9],>50 days
same,Surviving Mice (live animals after 366 days),[3]; [9],1/10
same,T/C = Treated/Control (MSP) × 100,[3]; [9],>284
same,MSP (Mean Survival Period),[3]; [10],6.4 days
same,Surviving Mice (live animals after 366 days),[3]; [10],0/10
same,T/C = Treated/Control (MSP) × 100,[3]; [10],36
same,MSP (Mean Survival Period),[3]; [11],3.7 days
same,Surviving Mice (live animals after 366 days),[3]; [11],0/10
same,T/C = Treated/Control (MSP) × 100,[3]; [11],21
same,MSP (Mean Survival Period),[3]; [12],3.0 days
same,Surviving Mice (live animals after 366 days),[3]; [12],0/10
same,T/C = Treated/Control (MSP) × 100,[3]; [12],17
"CN1Oc2cc3c(c4cccc(c24)C1=O)C(CCl)CN3C(=O)OC(C)(C)C (stereo not drawn) [Compound 12, tert-Butyl 10-(Chloromethyl)-5-methyl-4-oxo-9,10-dihydro-4H-pyrrolo[3′,2′:5,6]naphtho[1,8-de][1,2]oxazine-8(5H)-carboxylate]",time unreactive toward NaHCO3,"[4]; NaHCO3 in THF, MeOH, DMF/H2O",more than 5 days
same,IC50,[2]; [7],850 nM
same,IC50,[2]; [8],> 1000 nM
same,half-life,[5],24 h
"CC(C)(C)OC(=O)N1CC(CCl)c2c1cc1c3c(cccc23)C(=O)NO1 (stereo not drawn) [Compound 15, tert-Butyl 10-(Chloromethyl)-4-oxo-9,10-dihydro-4H-pyrrolo[3′,2′:5,6]naphtho[1,8-de][1,2]oxazine-8(5H)-carboxylate]",half-life,"[4]; NaHCO3 in MeOH, read-out: t1/2 with NaHCO3 (converted)",70 h
same,stability to NaHCO3,[4]; NaHCO3 in THF/H2O,stable
same,IC50,[2]; [7],650 nM
same,IC50,[2]; [8],> 1000 nM
same,half-life,[5],2 h
"O=C(Nc1ccc2[nH]c(C(=O)N3C[C@@H](CCl)c4c3cc(O)c3ccccc43)cc2c1)c1cc2ccccc2[nH]1 [Compound (+)-4, seco-CBI-indole2, reference compound]",Surviving Mice (live animals after 366 days),[3]; [9],1/10
same,T/C = Treated/Control (MSP) × 100,[3]; [9],> 284 and 284
same,toxicity in tumor-bearing mice,[3]; all higher doses (100-500 μg/kg),proved toxic leading to premature death of the animals due to drug toxicity
same,toxicity in tumor-bearing mice,[3]; dosing at 60 to 500 μg/kg,premature death
same,therapeutic window (dose range),[6],0.03 to 0.1 mg/kg
"CN1Oc2cc3c(c4cccc(c24)C1=O)[C@H](CCl)CN3C(=O)c1cc2cc(NC(=O)c3cc4ccccc4[nH]3)ccc2[nH]1 [Compound (+)-6, N-(2-(10-(Chloromethyl)-5-methyl-4-oxo-5,8,9,10-tetrahydro-4H-pyrrolo[3′,2′:5,6]naphtho[1,8-de][1,2]oxazine-8-carbonyl)-1H-indol-5-yl)-1H-indole-2-carboxamide]",DNA alkylation,[1],incapable of alkylating DNA
same,difference in potency between Compound (+)-6 and Compound (+)-7,[2]; L1210,3 fold
same,IC50,[2]; [7],0.99 nM
same,IC50,"[2]; read-out: IC50 L1210 natural, natural enantiomer, 72 hours",~1 nM
same,T/C = Treated/Control (MSP) × 100,"[3]; 200 μg/kg i.p. on days 1, 5 and 9",386
same,Surviving Mice (live animals after 366 days),[3]; [12],4/10
same,T/C = Treated/Control (MSP) × 100,[3]; [12],> 1142
same,Surviving Mice (live animals after 366 days),[3]; [13],4/10
same,T/C = Treated/Control (MSP) × 100,[3]; [13],> 1130
same,Surviving Mice (live animals after 366 days),[3]; [14],6/10
same,T/C = Treated/Control (MSP) × 100,[3]; [14],> 1500
same,delayed toxicity in long term survivors,[3]; 366 days (1 year),no evidence of a delayed toxicity
same,tolerance at the injection sites,"[3]; i.p. administration, versus free drug",tolerated at the injection sites of the animals much better than the free drug
same,dosing permitted over that of the free drug,[3]; versus free drug,≥ 40 fold
same,in vivo potency relative to the free drug,[3]; versus free drug,≤ 3 fold
"O=C(Nc1ccc2[nH]c(C(=O)N3C[C@@H](CCl)c4c3cc3c5c(cccc45)C(=O)NO3)cc2c1)c1cc2ccccc2[nH]1 [Compound (+)-7, N-(2-(10-(Chloromethyl)-4-oxo-5,8,9,10-tetrahydro-4H-pyrrolo[3′,2′:5,6]naphtho[1,8-de][1,2]oxazine-8-carbonyl)-1H-indol-5-yl)-1H-indole-2-carboxamide]",DNA alkylation after thiol activation,[1]; incubated with 1 M L-glutathione at 37° C.,results in DNA alkylation; also recorded: slow DNA alkylation reaction
same,DNA alkylation,[1],No DNA alkylation; also recorded: failed to alkylate DNA
